This is an account of results in US12390425B1, “Use of tyrosol as a physiological enhancer of creatine and its application in continuous high intensity exercise” (MolTek Nutrition Co., Ltd, priority 2024, dated 2025).

Common to all, as to type: in vivo
Experiment [1] has as its system skeletal muscle of mice. Kind of experiment: Phosphocreatine and creatine levels in dissected leg skeletal muscle after continuous interval electrical stimulation (Experiment 1). The note with it: for Creatine (CR) level in skeletal muscle / Phosphocreatine (PCr) level in skeletal muscle / Total creatine (TCr) level in skeletal muscle: 2 weeks diet: CR 5% creatine monohydrate, Ty+CR 1% tyrosol and 5% creatine monohydrate, mean±SE; for Total creatine (TCr) level in skeletal muscle: sum of PCr and CR. The procedure:
Animal Experiment: Thirty 8-week-old mice were prepared and acclimated to the laboratory environment for one week before being randomly divided into three groups. Control Group: Normal diet with no added active ingredients, serving as the control group. CR Group: Normal diet supplemented with 5% creatine monohydrate. Ty+CR Group: Normal diet supplemented with 1% tyrosol and 5% creatine monohydrate.
After two weeks of feeding, the mice were anesthetized, and the leg skeletal muscles were dissected, showing clear connective tissue without blood. For muscle contraction tests via electrical stimulation, the muscles were first incubated in a specific physiological buffer solution for 10 minutes to recover from dissection. The muscles were then clamped with aluminum forceps and stimulated using platinum electrodes and a capacitor alternating polarity discharge.
The muscles were subjected to 250 ms electrical stimulation with six intervals, each interval progressively shortened from 4 s to 1 s. After six interval stimulations, a 1-minute observation period followed before the next round, totaling four rounds. The left and right leg muscles of each mouse were labeled, and subjected to the aforementioned electrical stimulation test.
Phosphocreatine (PCr) and creatine (CR) levels were immediately measured in the dissected right leg muscles after the electrical stimulation test. The dissected left leg muscles of all groups were measured for phosphocreatine and creatine levels 5 minutes after the test. Total creatine (TCr) levels were the sum of phosphocreatine and creatine levels. Standard fluorescence assay was used to determine phosphocreatine and creatine levels in muscle samples extracted with perchloric acid precipitation.
Note: Values are expressed as mean±SE, in mmol/kg dry weight.

In experiment [2] the test system is mice. Kind of experiment: Grip strength test during continuous high-intensity exercise (Experiment 2). The note with it: for Percentage change of muscle strength (grip strength relative to first exercise): gavage daily 4 weeks: Ty 75 mg/kg tyrosol, CR 260 mg/kg creatine monohydrate, Ty+CR 75 mg/kg+260 mg/kg. The method, then: Animal Experiment 1: Six-week-old mice were used. After one week of acclimation to the environment, the mice were randomly divided into the following groups:
(§1) Control Group: Normal diet, serving as the control group.
(§2) Ty Group: Normal diet, with 75 mg/kg tyrosol administered by gavage daily.
(§3) CR Group: Normal diet, with 260 mg/kg creatine monohydrate administered by gavage daily.
(§4) Ty+CR Group: Normal diet, with 75 mg/kg tyrosol+260 mg/kg creatine monohydrate administered by gavage daily.
(§5) This regimen continued for 4 weeks. The first grip strength test was conducted 30 minutes after the last gavage. The grip strength of the mice's limbs was measured using a grip strength meter. After a 1-hour rest, the mice underwent the first exhaustive swimming exercise. […] The mice were then placed in a weighted swimming tank at a water temperature of 30±1° C. for the exhaustive swimming test. Exhaustion was considered if the mice touched the bottom of the tank three consecutive times within 30 seconds. The detector recorded the mice's bottom-touching instances, and upon determining exhaustion, the swimming tank automatically lifted the mice, recording the exhaustive swimming time.
(§6) 24 hours after the first swimming exercise, the second grip strength test and exhaustive swimming exercise were conducted using the same methods, recording grip strength data and exhaustive swimming time. The third and fourth grip strength tests and exhaustive swimming exercises were conducted 24 hours after the previous exercise, recording the respective data. The gavage regimen remained unchanged during the intervals.
Note: The data compared each group's grip strength in subsequent exercises to their grip strength in the first exercise, reflected the difference in grip strength from the initial value.

The test system of experiment [3] is mice. Nature of the experiment: Weighted exhaustive swimming test during continuous high-intensity exercise (Experiment 2). The note with it: for Percentage change of exhaustive exercise time (relative to first exercise): gavage daily 4 weeks: Ty 75 mg/kg tyrosol, CR 260 mg/kg creatine monohydrate, Ty+CR 75 mg/kg+260 mg/kg; for Exhaustive swimming exercise time compared to control group, FIG. 2 / Trend of exhaustive swimming exercise time during continuous exercise, FIG. 2: Ty 75 mg/kg, CR 260 mg/kg, Ty+CR 75+260 mg/kg; for Exhaustive swimming exercise time compared to control group, FIG. 2: 4 weeks; for Trend of exhaustive swimming exercise time during continuous exercise, FIG. 2: four exercises 24 h apart. The procedure:
After one week of acclimation to the environment, the mice were randomly divided into the following groups:
as §1, §2, §3, §4, §5, §6
Note: The data compared each group's exhaustive exercise time in subsequent exercises to their exhaustive exercise time in the first exercise, reflected the difference in exhaustive exercise time from the initial value.

The test system of experiment [4] is mice. Kind of experiment: Grip strength test during continuous high-intensity exercise (Experiment 3). The procedure:
(§7) Animal Experiment 2: Six-week-old mice were used. After one week of acclimation to the environment, the mice were randomly divided into the following groups:
as §1
(§8) Ty 1 Group: Normal diet, with 2.6 mg/kg tyrosol administered by gavage daily.
(§9) CR 1-3 Groups: Normal diet, with 65 mg/kg, 390 mg/kg, and 1300 mg/kg creatine monohydrate administered by gavage daily.
(§10) Ty+CR 1-4 Groups: Normal diet, with 2.6 mg/kg tyrosol+65 mg/kg creatine monohydrate, 130 mg/kg tyrosol+130 mg/kg creatine monohydrate, 390 mg/kg tyrosol+1300 mg/kg creatine monohydrate, and 2.6 mg/kg tyrosol+1300 mg/kg creatine monohydrate administered by gavage daily.
With the exception of groups Ty 1, CR 1, and Ty+CR 1 which were fed for 8 weeks, all other dosing groups were fed for 4 weeks, with one daily gavage. Groups CR 3, Ty+CR 3, and Ty+CR 4 received their daily gavage dose in two separate administrations each day. Half of the control group was fed for 4 weeks, and the other half for 8 weeks. The first grip strength test was conducted 30 minutes after the last gavage, followed by the first exhaustive swimming exercise after a 1-hour rest. Grip strength and swimming exercise methods were the same as previously described. 24 hours after the first swimming exercise, the second grip strength test and exhaustive swimming exercise were conducted using the same methods, recording grip strength data and exhaustive swimming time. The third and fourth grip strength tests and exhaustive swimming exercises were conducted 24 hours after the previous exhaustive swimming exercise, recording grip strength data and exhaustive swimming time. Groups CR 3 and Ty+CR 4 underwent up to the eighth grip strength test and exhaustive swimming exercise, maintaining the same exercise methods. During the intervals, the gavage regimen for each group remained unchanged.

The test system of experiment [5] is mice. Nature of the experiment: Weighted exhaustive swimming test during continuous high-intensity exercise (Experiment 3). The procedure: as §7, §1, §8, §9, §10
With the exception of groups Ty 1, CR 1, and Ty+CR 1 which were fed for 8 weeks, all other dosing groups were fed for 4 weeks, with one daily gavage. Groups CR 3, Ty+CR 3, and Ty+CR 4 received their daily gavage dose in two separate administrations each day. Half of the control group was fed for 4 weeks, and the other half for 8 weeks. The first grip strength test was conducted 30 minutes after the last gavage, followed by the first exhaustive swimming exercise after a 1-hour rest. Grip strength and swimming exercise methods were the same as previously described. […]

In experiment [6] the test system is mice. Kind of experiment: Grip strength test during continuous high-intensity exercise (Experiment 2). The note with it: first grip strength test; Ty 75 mg/kg, CR 260 mg/kg, Ty+CR 75+260 mg/kg, 4 weeks.
Where [7] appears, read: 5 min later after electrical stimulation.
[8] abbreviates: immediately after electrical stimulation.
Setting [9] is: CR 1: 65 mg/kg creatine monohydrate, Ty+CR 1: 2.6 mg/kg tyrosol+65 mg/kg creatine monohydrate, 8 weeks.

For `CN(CC(=O)O)C(=N)N.O` [CR, creatine monohydrate], the “Creatine (CR) level in skeletal muscle” value was found to be 22.7 ± 2.8 mmol/kg dry weight in experiment [1] (setting [7]) and 49.2 ± 3.7 mmol/kg dry weight in experiment [1] (setting [8]). Further, the “Phosphocreatine (PCr) level in skeletal muscle” value amounted to 39.7 ± 2.2 mmol/kg dry weight in experiment [1] (setting [7]) and 13.4 ± 1.2 mmol/kg dry weight in experiment [1] (setting [8]). Besides, the entries for the “Total creatine (TCr) level in skeletal muscle” value in experiment [1] (setting [7]) and in experiment [1] (setting [8]) were 62.4 ± 3.0 mmol/kg dry weight and 62.6 ± 4.0 mmol/kg dry weight, respectively. For the same molecule, the “Decrease of creatine levels 5 minutes after end of muscle contraction (creatine conversion)” value in experiment [1] (immediate vs 5-min-later data within each group) is reported as 53.86%. Further, the “Levels of creatine, phosphocreatine and total creatine compared to control group” value in experiment [1] (immediately after stimulation or 5 minutes later) is “higher than those in the control group”. Also, the “Percentage change of muscle strength (grip strength relative to first exercise)” value in experiment [2] (First exercise) is listed as 1; in experiment [2] (Fourth exercise) it was 76.10%; in experiment [2] (Second exercise), 89.24%; in experiment [2] (Third exercise), 83.81%. The “Trend of muscle strength (grip strength) in subsequent exercises, FIG. 1” value in experiment [2] (four exercises 24 h apart, CR 260 mg/kg, Ty+CR 75+260 mg/kg) is “decline rate in the creatine group was also rapid”. Further, the “Percentage change of exhaustive exercise time (relative to first exercise)” value in experiment [3] (First exercise) is 1; in experiment [3] (Fourth exercise), 81.88%; in experiment [3] (Second exercise), 95.26%; in experiment [3] (Third exercise), 88.10%. Further, the “Exhaustive swimming exercise time compared to control group, FIG. 2” value in experiment [3] was “did not improve the endurance of the mice at the beginning”. Further, the “Trend of exhaustive swimming exercise time during continuous exercise, FIG. 2” value in experiment [3] is “declined to varying degrees”. The “Muscle strength (grip strength) compared to control group, FIG. 4” value in experiment [4] (setting [9]) was “significantly increased the muscle strength of the mice”. Besides, the “Muscle strength (grip strength) compared to control group, FIG. 3” value in experiment [4] (CR 2: 390 mg/kg creatine monohydrate, Ty+CR 2: 130 mg/kg tyrosol+130 mg/kg creatine monohydrate, 4 weeks) is listed as “significantly higher than that in the control group”. For the same molecule, in experiment [4] (CR 2: 390 mg/kg creatine monohydrate, Ty+CR 2: 130 mg/kg tyrosol+130 mg/kg creatine monohydrate, four exercises), the “Trend of muscle strength (grip strength) during continuous exercise, FIG. 3” value was “marked decline in muscle strength”. Besides, in experiment [5] (setting [9]), the “Endurance time (exhaustive swimming) compared to control group, FIG. 6” value is recorded as “did not improve the endurance time of mice”. Moreover, the “Endurance (exhaustive swimming time), FIG. 5” value in experiment [5] (CR 2: 390 mg/kg creatine monohydrate, 4 weeks) was “able to enhance the endurance of mice and prolong exercise time”. The “Muscle strength (grip strength) compared to control group, FIG. 1” value in experiment [6] is “significantly increased compared to the control group”.
Regarding `OCCc1ccc(O)cc1` [Ty, tyrosol], the “Percentage change of muscle strength (grip strength relative to first exercise)” value is given as 1 in experiment [2] (First exercise), 85.05% in experiment [2] (Fourth exercise), 97.40% in experiment [2] (Second exercise) and 96.55% in experiment [2] (Third exercise). Besides, the “Percentage change of exhaustive exercise time (relative to first exercise)” value was 88.45% in experiment [3] (Fourth exercise), 97.13% in experiment [3] (Second exercise) and 94.54% in experiment [3] (Third exercise). The “Exhaustive swimming exercise time compared to control group, FIG. 2” value in experiment [3] is given as “significantly higher than that of the control group mice”. In addition, the “Trend of exhaustive swimming exercise time during continuous exercise, FIG. 2” value in experiment [3] was “declined to varying degrees”. In experiment [6], the “Muscle strength (grip strength) compared to control group, FIG. 1” value was “did not show a significant increase in muscle strength”.
